ChEMBL document CHEMBL1144582, “Identification of arylsulfonamides as Aquaporin 4 inhibitors” (Bioorg Med Chem Lett, 2007)

Tests used:
Oocyte = assay: Inhibition of human AQP4b-mediated water transport in Xenopus oocytes at 20 uM; format: cell-based
[1] = Inhibition of human AQP4b-mediated water transport in Xenopus oocytes; conditions: Oocyte

| SMILES | inhibition (Oocyte) [%] | IC50 [1] [nM] |
| --- | --- | --- |
| CCOc1ccc2nc(S(N)(=O)=O)sc2c1 | 68 |  |
| CC(=O)Nc1ccc(S(N)(=O)=O)cc1 | 23 |  |
| CC(=O)Nc1nnc(S(N)(=O)=O)s1 [ACETAZOLAMIDE] |  | 900 |
